Data as given in patent US20250092065A1, “2-(INDAZOL-5-YL)-6-(PIPERIDIN-4-YL)-1,7-NAPHTHYRIDINE DERIVATIVES AND RELATED COMPOUNDS AS MODULATORS FOR SPLICING NUCLEIC ACIDS AND FOR THE TREATMENT OF PROLIFERATIVE DISEASES” (REMIX THERAPEUTICS INC., priority 2022, published 2025).
Like-named read-outs stand apart in the source and are kept apart here.

Legend:
HTT mRNA = experiment: RT-qPCR splicing assay, HTT mRNA canonical (CJ) and alternative (AJ) junction; format: cell-based, human; conditions: Homo sapiens; for AC50: HTT alternative junction mRNA, read-out: HTT AJ (increase in AJ mRNA, AC50)
Method in brief: (§1)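 Both isoforms, CJ and AJ, read by qPCR from crude lysates of treated A673 or K562 cells; 24 h, 37 °C, maximum 10 uM. Normalization: housekeeper ΔCt, then DMSO ΔΔCt.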

SMN2 mRNA = experiment: RT-qPCR splicing assay, SMN2 mRNA; format: cell-based, human; conditions: Homo sapiens, canonical junction qPCR panel, Table 4; read-out: SMN2 IC50 (decrease in CJ mRNA levels)
Method in brief: as §1

K562 cells = experiment: Cell Titer Glo 2.0 cell viability (toxicity) assay, K562; conditions: 500 cells/well, 72 hours
Protocol: Compounds described herein were screened for toxicity in K562 (human chronic myelogenous leukemia) and SH-SY5Y (human neuroblastoma) cells using a Cell Titer Glo 2.0 assay.
Cells were plated at 500 cells/well (K562 cells) in 45 μL of IMDM supplemented with 10% FBS in a 384-well opaque plate. Wells containing only medium were used as a blank control. Test compounds (e.g., compounds of Formula (I) or (II)) were first serially diluted in DMSO then diluted 1:100 with EIDM+10% FBS. The final concentration of DMSO was 0.1% in each well. The cells were incubated for 72 hours at 37° C. and 5% CO2 before assaying with Cell Titer Glo 2.0 reagent.

Target C = experiment: RT-qPCR canonical junction panel assay, Target C mRNA; format: cell-based; conditions: Table 4, read-out: Target C IC50 (decrease in CJ mRNA levels)
Method in brief: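 IC50 is the concentration giving 50% CJ decrease, from a 4-parameter logistic fit of percent response; response derived from ΔΔCt against housekeeper and DMSO over a fixed ΔCt window, with canonical exon-junction qPCR in compound-treated K562 or A673 cells.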

MYB mRNA = experiment: RT-qPCR splicing assay, MYB mRNA canonical (CJ) and alternative (AJ) junction; format: cell-based, human; conditions: Homo sapiens; for AC50: MYB alternative junction mRNA, read-out: MYB AJ (increase in AJ mRNA, AC50)
Method in brief: as §1

[1] = HTT canonical junction mRNA, RT-qPCR, read-out: HTT CJ (decrease in CJ mRNA levels, IC50)
[2] = canonical junction qPCR panel, Table 4, read-out: HTT IC50 (decrease in CJ mRNA levels)
[3] = MYB canonical junction mRNA, RT-qPCR, read-out: MYB CJ (decrease in CJ mRNA levels, IC50)
[4] = canonical junction qPCR panel, Table 4, read-out: MYB IC50 (decrease in CJ mRNA levels)

| Compound | IC50 (HTT mRNA; [1]) [nM] | IC50 (HTT mRNA; [2]) [nM] | IC50 (SMN2 mRNA) [nM] | IC50 (Target C) [nM] | IC50 (MYB mRNA; [3]) [nM] | IC50 (MYB mRNA; [4]) [nM] | AC50 (HTT mRNA; RT-qPCR) [nM] | Effect of Exemplary Compounds on Cell Viability, K562 (K562 cells) | AC50 (MYB mRNA; RT-qPCR) [nM] |
| --- | --- | --- | --- | --- | --- | --- | --- | --- | --- |
| Cc1nc2cc(O)c(-c3ccc4nc(N5CC[C@@H](N[C@H]6C[C@@H](F)C6)C5)ccc4n3)cc2o1 (stereo in doubt) [Compound 395] | 100 to 1000 | 100 to 1000 | < 100 | 1000 to 10000 | 100 to 1000 | 100 to 1000 | 100 to 1000 | B (B represents 100-1000 nM) | 100 to 1000 |
| Cn1cc2cc(-c3ccc4nc(N5CC[C@H](NC6(CF)CC6)C5)ccc4n3)c(O)cc2n1 [Compound 355, 5-{6-[(3S)-3-{[1-(fluoromethyl)cyclopropyl]amino}pyrrolidin-1-yl]-1,5-naphthyridin-2-yl}-2-methylindazol-6-ol] | < 100 | < 100 | < 100 | 100 to 1000 | < 100 | < 100 | < 100 | B (B represents 100-1000 nM) | < 100 |
| Cc1c(O)c(-c2ccc3nc(N4CCC(NC5(CF)CC5)C4)ccc3n2)cc2cn(C)nc12 (stereo not drawn) [Compound 360, 5-[6-(3-{[1-(fluoromethyl)cyclopropyl]amino}pyrrolidin-1-yl)-1,5-naphthyridin-2-yl]-2,7-dimethylindazol-6-ol] | < 100 | < 100 | < 100 | < 100 | < 100 | < 100 | < 100 | B (B represents 100-1000 nM) | < 100 |
| Cc1c(O)c(-c2cc(C(C)O)c3nc(N4CCNCC4)ccc3n2)cc2cn(C)nc12 (stereo not drawn) [Compound 364, 5-[4-(1-hydroxyethyl)-6-(piperazin-1-yl)-1,5-naphthyridin-2-yl]-2,7-dimethylindazol-6-ol] | > 10000 | > 10000 | 100 to 1000 | > 10000 | 1000 to 10000 | 1000 to 10000 | > 10000 | B (B represents 100-1000 nM) | 1000 to 10000 |
| Cc1c(O)c(-c2ncc3nc(C4CCNCC4)ccc3n2)cc2cn(C)nc12 [Compound 370, 2,7-dimethyl-5-[6-(piperidin-4-yl)pyrido[3,2-d]pyrimidin-2-yl]indazol-6-ol] | 100 to 1000 | 100 to 1000 | < 100 | 1000 to 10000 | 100 to 1000 | 100 to 1000 | 1000 to 10000 | C (C represents 1000-9999 nM) | 100 to 1000 |
| Cc1nc2c(F)c(O)c(-c3ccc4nc(N5CC[C@H](N[C@H]6C[C@@H](F)C6)C5)ccc4n3)cc2o1 [Compound 374, 4-fluoro-2-methyl-6-[6-(3-{[(1r,3r)-3-fluorocyclobutyl]amino}pyrrolidin-1-yl)-1,5-naphthyridin-2-yl]-1,3-benzoxazol-5-ol] | < 100 | < 100 | < 100 | < 100 | < 100 | < 100 | < 100 | A (A represents <100 nM) | < 100 |
| CNC1CCN(c2ccc3nc(-c4cc(C#N)c5nc(C)cn5c4)ncc3n2)C1 (stereo not drawn) [Compound 382, 2-methyl-6-{6-[3-(methylamino)pyrrolidin-1-yl]pyrido[3,2-d]pyrimidin-2-yl}imidazo[1,2-a]pyridine-8-carbonitrile] | 100 to 1000 | 100 to 1000 | < 100 | 1000 to 10000 | < 100 | < 100 | 100 to 1000 | A (A represents <100 nM) | < 100 |
| Cn1cc2cc(-c3ccc4nc(N5CC[C@H](NC6CC(F)(F)C6)C5)ccc4n3)c(O)cc2n1 [Compound 384] | 1000 to 10000 | 1000 to 10000 | < 100 | > 10000 | 100 to 1000 | 100 to 1000 | 1000 to 10000 | D (D represents greater than 10 μM in K562 cells) | 100 to 1000 |
| Cn1cc2cc(-c3ccc4nc(N5CC[C@@H](NC6CC(F)(F)C6)C5)ccc4n3)c(O)cc2n1 [Compound 385] | < 100 | < 100 | < 100 | 100 to 1000 | 100 to 1000 | 100 to 1000 | 100 to 1000 | D (D represents greater than 10 μM in K562 cells) | 100 to 1000 |
| Cn1cc2cc(-c3ccc4nc(N5CCC(NCC6CC6)C5)ccc4n3)c(O)c(F)c2n1 (stereo not drawn) [Compound 387, 5-(6-{3-[(cyclopropylmethyl)amino]pyrrolidin-1-yl}-1,5-naphthyridin-2-yl)-7-fluoro-2-methylindazol-6-ol] | < 100 | < 100 | < 100 | < 100 | < 100 | < 100 | < 100 | A (A represents <100 nM) | < 100 |

Second part, led by results:

| IC50 (HTT mRNA; [1]) [nM] | IC50 (HTT mRNA; [2]) [nM] | IC50 (SMN2 mRNA) [nM] | IC50 (Target C) [nM] | IC50 (MYB mRNA; [3]) [nM] | IC50 (MYB mRNA; [4]) [nM] | Compound | AC50 (HTT mRNA; RT-qPCR) [nM] | Effect of Exemplary Compounds on Cell Viability, K562 (K562 cells) | AC50 (MYB mRNA; RT-qPCR) [nM] |
| --- | --- | --- | --- | --- | --- | --- | --- | --- | --- |
| < 100 | < 100 | < 100 | < 100 | < 100 | < 100 | Cn1cc2cc(-c3ccc4nc(N5CCC(NC6(CF)CC6)C5)ccc4n3)c(O)c(F)c2n1 (stereo in doubt) [Compound 353, 7-fluoro-5-{6-[(3R)-3-{[1-(fluoromethyl)cyclopropyl]amino}pyrrolidin-1-yl]-1,5-naphthyridin-2-yl}-2-methylindazol-6-ol] | < 100 | A (A represents <100 nM) | < 100 |
| < 100 | < 100 | < 100 | < 100 | < 100 | < 100 | Cn1cc2cc(-c3ccc4nc(N5CCC(NC6(CF)CC6)C5)ccc4n3)c(O)c(F)c2n1 (stereo in doubt) [Compound 357, 7-fluoro-5-{6-[(3S)-3-{[1-(fluoromethyl)cyclopropyl]amino}pyrrolidin-1-yl]-1,5-naphthyridin-2-yl}-2-methylindazol-6-ol] | < 100 | A (A represents <100 nM) | < 100 |
| < 100 | < 100 | < 100 | < 100 | < 100 | < 100 | Cn1cc2cc(-c3ccc4nc(N5CCC(N)C5)ccc4n3)c(O)c(F)c2n1 (stereo in doubt) [Compound 363, 5-{6-[(3R)-3-aminopyrrolidin-1-yl]-1,5-naphthyridin-2-yl}-7-fluoro-2-methylindazol-6-ol] | < 100 | A (A represents <100 nM) | < 100 |
| < 100 | < 100 | < 100 | < 100 | < 100 | < 100 | Cc1nc2c(F)c(O)c(-c3ccc4nc(N5CC[C@@H](N[C@H]6C[C@@H](F)C6)C5)ccc4n3)cc2o1 (stereo in doubt) [Compound 375] | < 100 | A (A represents <100 nM) | < 100 |
| < 100 | < 100 | < 100 | 100 to 1000 | < 100 | < 100 | Cc1nc2c(C)c(O)c(-c3ccc4nc(N5CC[C@@H](N[C@H]6C[C@@H](F)C6)C5)ccc4n3)cc2o1 (stereo in doubt) [Compound 376] | 100 to 1000 | B (B represents 100-1000 nM) | < 100 |
| < 100 | < 100 | < 100 | < 100 | < 100 | < 100 | Cc1nc2c(C)c(O)c(-c3ccc4nc(N5CC[C@H](N[C@H]6C[C@@H](F)C6)C5)ccc4n3)cc2o1 (stereo in doubt) [Compound 377] | < 100 | B (B represents 100-1000 nM) | < 100 |
| < 100 | < 100 | < 100 | 100 to 1000 | 100 to 1000 | 100 to 1000 | Cc1nc2cc(O)c(-c3ccc4nc(N5CC[C@H](N[C@H]6C[C@@H](F)C6)C5)ccc4n3)cc2o1 (stereo in doubt) [Compound 396] | < 100 | B (B represents 100-1000 nM) | 100 to 1000 |
| < 100 | < 100 | < 100 | < 100 | < 100 | < 100 | Cn1cc2cc(-c3ccc4nc(N5CC[C@@H](NC6(CF)CC6)C5)ccc4n3)c(O)cc2n1 [Compound 354, 5-{6-[(3R)-3-{[1-(fluoromethyl)cyclopropyl]amino}pyrrolidin-1-yl]-1,5-naphthyridin-2-yl}-2-methylindazol-6-ol] | < 100 | B (B represents 100-1000 nM) | < 100 |
